Reference: patent publication US11072617B2, “Bicyclic sulfones and sulfoxides and methods of use thereof” (Genentech, Inc., priority 2017, dated 2021)

Target: human RIP1 kinase domain (2-375) (Homo sapiens (Human), UniProt Q13546)
Experiment: RIP1 kinase inhibition biochemical assay (Transcreener ADP, fluorescence polarization)
Conditions: Ki app from tight-binding Morrison equation; 50 nM enzyme, 50 uM ATP, 2 hours incubation
In short: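 Baculovirus-expressed human RIP1 kinase domain (2-375), 50 nM, incubated 2 h with compounds in pH 7.5 Hepes, 30 mM MgCl2, 50 uM ATP, 0.5% DMSO. ADP detected by Transcreener fluorescence-polarization tracer displacement; Ki^app from Morrison tight-binding fit.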

human RIP1 kinase domain (2-375), sequence (Q13546 2-375): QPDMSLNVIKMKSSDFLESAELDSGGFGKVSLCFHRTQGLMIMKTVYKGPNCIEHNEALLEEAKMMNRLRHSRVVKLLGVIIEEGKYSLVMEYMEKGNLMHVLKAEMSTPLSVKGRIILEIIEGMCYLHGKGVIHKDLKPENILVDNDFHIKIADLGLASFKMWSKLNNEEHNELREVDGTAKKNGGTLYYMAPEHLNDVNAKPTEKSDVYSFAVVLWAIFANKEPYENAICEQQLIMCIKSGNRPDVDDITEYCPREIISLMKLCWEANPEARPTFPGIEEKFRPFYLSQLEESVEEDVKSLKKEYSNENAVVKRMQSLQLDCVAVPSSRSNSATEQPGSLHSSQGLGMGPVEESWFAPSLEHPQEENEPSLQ

Compound | Ki
O=S(=O)(c1nc2n(n1)CCC2c1ccccc1)C(F)F (racemic) [Example 220, 2-(Difluoromethylsulfonyl)-7-phenyl-6,7-dihydro-5H-pyrrolo[1,2-b][1,2,4]triazole] | 100 nM
O=S(=O)(c1nc2n(n1)[C@H](c1cc(F)ccc1F)C[C@@H]2F)C1CC1F (stereo in doubt) [Example 202, (5S,7S)-5-(2,5-difluorophenyl)-7-fluoro-2-[(1R,2R)-2-fluorocyclopropyl]sulfonyl-6,7-dihydro-5H-pyrrolo[1,2-b][1,2,4]triazole] | < 5 nM
O=S(=O)(c1nc2n(n1)[C@H](c1cccc(F)c1)C[C@@H]2F)[C@H]1C[C@H](F)C1 (single isomer, unassigned) [Example 226] | 9.3 nM
[O-][S@@+](CF)c1nc2n(n1)[C@H](c1ccccc1)C[C@@H]2F (single isomer, unassigned) [Example 73] | 3 nM
CC(F)(F)S(=O)(=O)c1nc2n(n1)[C@H](c1ccccc1)C[C@@H]2F (single isomer, unassigned) [Example 149] | 16 nM
COC[S+]([O-])c1nc2n(n1)[C@H](c1ccccc1)C[C@@H]2F (stereo partly drawn) [Example 115, (5S,7S)-7-fluoro-2-(methoxymethylsulfinyl)-5-phenyl-6,7-dihydro-5H-pyrrolo[1,2-b][1,2,4]triazole] | 31 nM
O=S(=O)(c1nc2n(n1)[C@H](c1ccc(F)c(F)c1)C[C@@H]2F)C(F)F (single isomer, unassigned) [Example 63] | 34 nM
O=S(=O)(c1nc2n(n1)[C@H](c1cc(F)ccc1F)C[C@@H]2F)C(F)F (single isomer, unassigned) [Example 67] | 5 nM
O=S(=O)(c1nc2n(n1)[C@H](c1ccccc1)C[C@@H]2F)[C@H]1C[C@@H]1C(F)(F)F (mixture of isomers) [Example 163, (5S,7S)-7-fluoro-5-phenyl-2-[rac-(1S,2R)-2-(trifluoromethyl)cyclopropyl]sulfonyl-6,7-dihydro-5H-pyrrolo[1,2-b][1,2,4]triazole] | 7 nM
O=S(=O)(c1nc2n(n1)[C@H](c1cccc(F)c1)C[C@@H]2F)[C@H]1C[C@@H]1F (single isomer, unassigned) [Example 141] | < 5 nM
[O-][S+](c1nc2n(n1)C(c1ccccc1)CC2)C(F)F (stereo not shown) [Example 1, 2-(difluoromethylsulfinyl)-5-phenyl-6,7-dihydro-5H-pyrrolo[1,2-b][1,2,4]triazole] | 58 nM
O=S(=O)(c1nc2n(n1)[C@H](c1cc(F)ccc1F)C[C@@H]2F)C(F)(F)F (single isomer, unassigned) [Example 138] | < 5 nM
[O-][S@+](CF)c1nc2n(n1)[C@H](c1ccccc1F)C[C@@H]2F (single isomer, unassigned) [Example 75] | 140 nM
CC(C)S(=O)(=O)c1nc2n(n1)[C@H](c1ccccc1)C[C@@H]2F (single isomer, unassigned) [Example 110] | 14 nM
CC(C)(C)[S@@+]([O-])c1nc2n(n1)[C@H](c1ccccc1)C[C@@H]2F (single isomer, unassigned) [Example 191] | 5 nM
O=S(=O)(c1nc2n(n1)[C@H](c1ccccc1Cl)C[C@@H]2F)C1CC1 (single isomer, unassigned) [Example 32] | 3 nM
O=S(=O)(c1nc2n(n1)[C@H](c1cc(F)cc(Cl)c1)C[C@@H]2F)C(F)F (single isomer, unassigned) [Example 215] | 32 nM

Compound | Ki
[O-][S@@+](c1nc2n(n1)[C@H](c1ccccc1)C[C@@H]2F)C1CC1 [Example 28, (5S,7S)-2-[(R)-cyclopropylsulfinyl]-7-fluoro-5-phenyl-6,7-dihydro-5H-pyrrolo[1,2-b][1,2,4]triazole] | 89 nM
[O-][S+](Cc1ccccn1)c1nc2n(n1)[C@H](c1ccccc1)C[C@@H]2F (stereo partly drawn) [Example 147, (5S,7S)-7-fluoro-5-phenyl-2-((pyridin-2-ylmethyl)sulfinyl)-6,7-dihydro-5H-pyrrolo[1,2-b][1,2,4]triazole] | 140 nM
[O-][S+](c1nc2n(n1)[C@H](c1ccccc1)C[C@@H]2F)C1CC(F)(F)C1 (stereo partly drawn) [Example 49, (5S,7S)-2-(3,3-difluorocyclobutyl)sulfinyl-7-fluoro-5-phenyl-6,7-dihydro-5H-pyrrolo[1,2-b][1,2,4]triazole] | 12 nM
O=S(=O)(CCO)c1nc2n(n1)[C@H](c1ccccc1)C[C@@H]2F (single isomer, unassigned) [Example 223] | 190 nM
[O-][S@+](c1nc2n(n1)[C@H](c1ccccc1F)C[C@@H]2F)C(F)F (single isomer, unassigned) [Example 52] | 3 nM
O=S(=O)(c1nc2n(n1)[C@H](c1ccccc1)C[C@@H]2F)C1CC1 [Example 30, (5S,7S)-2-cyclopropylsulfonyl-7-fluoro-5-phenyl-6,7-dihydro-5H-pyrrolo[1,2-b][1,2,4]triazole] | 4 nM
CS(=O)(=O)c1nc2n(n1)[C@H](c1ccccc1F)CC2 (single isomer, unassigned) [Example 7] | 250 nM
N#Cc1ccccc1[C@@H]1C[C@H](F)c2nc(S(=O)(=O)C(F)F)nn21 (single isomer, unassigned) [Example 62] | 266 nM
C[C@H]1C[C@@H]1S(=O)(=O)c1nc2n(n1)[C@H](c1ccccc1)C[C@@H]2F (mixture of isomers) [Example 162, (5S,7S)-7-fluoro-5-phenyl-2-[rac-(1S,2S)-2-methylcyclopropyl]sulfonyl-6,7-dihydro-5H-pyrrolo[1,2-b][1,2,4]triazole] | 14 nM
[O-][S@+](c1nc2n(n1)[C@H](c1ccccc1)CC2)C(F)F [Example 11, (5S)-2-[(R)-difluoromethylsulfinyl]-5-phenyl-6,7-dihydro-5H-pyrrolo[1,2-b][1,2,4]triazole] | 10 nM
O=S(=O)(c1nc2n(n1)[C@H](c1ccc(F)cc1)C[C@@H]2F)C1CC1F (stereo in doubt) [Example 197, (5S,7S)-7-fluoro-5-(4-fluorophenyl)-2-[(1R,2R)-2-fluorocyclopropyl]sulfonyl-6,7-dihydro-5H-pyrrolo[1,2-b][1,2,4]triazole] | 8 nM
[O-][S@+](CF)c1nc2n(n1)[C@H](c1ccccc1)C[C@@H]2F [Example 71] | 90 nM
[O-][S+](c1nc2n(n1)C(c1ccccc1)CC2)C(F)(F)c1ccccc1 (stereo not shown) [Example 5, 2-[difluoro(phenyl)methyl]sulfinyl-5-phenyl-6,7-dihydro-5H-pyrrolo[1,2-b][1,2,4]triazole] | 548 nM
O=S(=O)(c1nc2n(n1)[C@H](c1cc(F)cc(F)c1)C[C@@H]2F)C(F)F (single isomer, unassigned) [Example 69] | < 5 nM
O=S(=O)(c1nc2n(n1)[C@H](c1cc(Cl)ccc1F)C[C@@H]2F)C(F)F [Example 66, (5S,7S)-5-(5-chloro-2-fluorophenyl)-2-((difluoromethyl)sulfonyl)-7-fluoro-6,7-dihydro-5H-pyrrolo[1,2-b][1,2,4]triazole] | 69 nM
O=S(=O)(c1nc2n(n1)[C@H](c1c(F)cccc1F)C[C@@H]2F)C1CC1 (single isomer, unassigned) [Example 35] | 5 nM
N#CC1CC1S(=O)(=O)c1nc2n(n1)[C@H](c1ccccc1)C[C@@H]2F (stereo in doubt) [Example 222, (1R,2R)-2-[[(5S,7S)-7-fluoro-5-phenyl-6,7-dihydro-5H-pyrrolo[1,2-b][1,2,4]triazol-2-yl]sulfonyl]cyclopropanecarbonitrile] | 61 nM
